Assay results from patent US20070173532A1, “New Piperidine Antibiotics” (Actelion Pharmaceuticals Ltd., priority 2004, published 2007).
Converted amounts (≈) assume the structure as drawn.

How the values were obtained:
Assay type in all cases: cell-based
S. pneumoniae 49619 = assay: MIC by microdilution (NCCLS) against S. pneumoniae 49619; settings: for MIC: Streptococcus pneumoniae, 49619, cation-adjusted Mueller-Hinton Broth, pH 7.2-7.3, read-out: MIC S. Pneunoniae 49619
Experimental: (§1) These assays have been performed following the description given in “Methods for dilution Antimicrobial Susceptibility Tests for Bacteria that Grow Aerobically, 4th ed.; Approved standard: NCCLS Document M7-A4; National Committee for Clinical Laboratory Standards: Villanova, Pa., USA, 1997”. Minimal inhibitory concentrations (MICs; mg/l) were determined in cation-adjusted Mueller-Hinton Broth (BBL) by a microdilution method following NCCLS guidelines (National Committee for Clinical Laboratory Standards. Methods for Dilution Antimicrobial Susceptibility). The pH of the test medium was 7.2-7.3. All Examples were tested against several Gram positive and Gram negative bacteria.

S. aureus A798 = assay: MIC by microdilution (NCCLS) against S. aureus A798; settings: pH 7.2-7.3; for MIC: Staphylococcus aureus, A798, cation-adjusted Mueller-Hinton Broth
Experimental: as §1

S. aureus 29213 = assay: MIC by microdilution (NCCLS) against S. aureus 29213; settings: pH 7.2-7.3; for MIC: Staphylococcus aureus, 29213, cation-adjusted Mueller-Hinton Broth
Experimental: as §1

E. faecalis 29212 = assay: MIC by microdilution (NCCLS) against E. faecalis 29212; settings: pH 7.2-7.3; for MIC: Enterococcus faecalis, 29212, cation-adjusted Mueller-Hinton Broth
Experimental: as §1

S. Pneunoniae A70 = assay: MIC by microdilution (NCCLS) against S. Pneunoniae A70; settings: cation-adjusted Mueller-Hinton Broth, pH 7.2-7.3
Experimental: as §1

E. faecium A949 = assay: MIC by microdilution (NCCLS) against E. faecium A949; settings: pH 7.2-7.3; for MIC: Enterococcus faecium, A949, cation-adjusted Mueller-Hinton Broth
Experimental: as §1

[1] = cation-adjusted Mueller-Hinton Broth

| MIC (S. pneumoniae 49619) | MIC (S. aureus A798) | MIC (S. aureus 29213) | MIC (E. faecalis 29212) | MIC (S. Pneunoniae A70) | MIC (E. faecium A949) | Structure (SMILES) | MIC S. Pneunoniae 49619 (S. pneumoniae 49619; cation-adjusted Mueller-Hinton Broth, pH 7.2-7.3) | MIC S. aureus A798 (S. aureus A798; [1]) | MIC S. aureus 29213 (S. aureus 29213; [1]) | MIC E. faecalis 29212 (E. faecalis 29212; [1]) | MIC S. Pneunoniae A70 (S. Pneunoniae A70) | MIC E. faecium A949 (E. faecium A949; [1]) |
| --- | --- | --- | --- | --- | --- | --- | --- | --- | --- | --- | --- | --- |
| – | – | – | – | – | – | COc1cnc2cccc(C(O)CC[C@@H]3CCN(C/C=C/c4ccccc4)C[C@@H]3C(=O)O)c2c1 (mixture of isomers) [Example 10, (3R,4R)-4-[(3RS)-3-hydroxy-3-(3-methoxy-quinolin-5-yl)-propyl]-1-trans-(3-phenyl-allyl)-piperidine-3-carboxylic acid] | 1 µg/mL (≈ 2.17 µM) | 0.25 µg/mL (≈ 0.543 µM) | 0.5 µg/mL (≈ 1.09 µM) | 4 µg/mL (≈ 8.68 µM) | 4 µg/mL (≈ 8.68 µM) | 4 µg/mL (≈ 8.68 µM) |
| 0.5 µg/mL (≈ 0.999 µM) | 0.25 µg/mL (≈ 0.499 µM) | 0.5 µg/mL (≈ 0.999 µM) | 8 µg/mL (≈ 16 µM) | 1 µg/mL (≈ 2 µM) | 1 µg/mL (≈ 2 µM) | COc1cnc2cccc(OCC[C@@H]3CCN(CCSc4cccs4)C[C@@H]3CCC(=O)O)c2c1 [Example 1, 3-{(3R,4S)-4-[2-(3-methoxy-quinolin-5-yloxy)-ethyl]-1-[2-(thiophen-2-ylsulfanyl)-ethyl]-piperidin-3-yl}-propionic acid] | – | – | – | – | – | – |
| 0.5 µg/mL (≈ 1.03 µM) | 0.25 µg/mL (≈ 0.514 µM) | 1 µg/mL (≈ 2.05 µM) | 2 µg/mL (≈ 4.11 µM) | 1 µg/mL (≈ 2.05 µM) | 2 µg/mL (≈ 4.11 µM) | COc1cnc2cccc(OCC[C@@H]3CCN(CCSc4cccs4)C[C@@H]3CCCO)c2c1 [Example 2, 3-{(3R,4S)4-[2-(3-methoxy-quinolin-5-yloxy)-ethyl]-1-[2-(thiophen-2-ylsulfanyl)-ethyl]-piperidin-3-yl}-propan-1-ol] | – | – | – | – | – | – |
